Data published in paper PMC6321168, “Comparative Study on Excretive Characterization of Main Components in Herb Pair Notoginseng-Safflower and Single Herbs by LC–MS/MS” (Pharmaceutics, 2018).

Assay: Fecal excretion study in rats after oral NS, SF or CNS (LC–MS/MS)
Format: in vivo
Details: rat feces
Method: The animal room was set at constant temperature of 20 ± 2 °C with humidity of 50 ± 20% and 12/12 h light/dark cycle.
Eighteen male rats were fasted for 12 h before starting the experiment. The rats were divided into three groups at random (n = 6) and received NS (60 mg/kg), SF (50 mg/kg), and NS (60 mg/kg) + SF (50 mg/kg), respectively, by oral gavage. The rats were placed in separate metabolic cages. The urine samples were collected at 0–2, 2–4, 4–6, 6–8, 8–12, 12–24, 24–36, 36–48, 48–72, 72–96, and 96–120 h. The feces samples were collected at 0–4, 4–8, 8–12, 12–24, 24–36, 36–48, 48–72, 72–96, and 96–120 h. The urine volume was recorded and the dry feces were measured for each collection period. Samples were stored at −80 °C until analysis.
Feces samples were homogenized in ultrapure water (1 g/15 mL), soaked for 30 min, ultrasonically extracted for 30 min and centrifuged at 9000 rpm for 8 min. An aliquot of 200 μL feces water extraction solution was mixed with 10 μL of IS and then extracted three times with water-saturated n-BuOH (150 μL). The upper organic phase was combined and evaporated to dryness using a ZLS-2 vacuum centrifugal concentrator. The residue was treated as the urine sample and a 1-μL aliquot was injected for LC–MS analysis.
Ultra fast liquid chromatography (UFLC) analysis was performed using a Shimadzu UFLC system (DGU-20A3R Degasser; LC-20AD pump; SIL-20AXR Autosampler; CTO-20AC Column Oven) (Nakagyo-Ku, Koyoto, Japan). […] Because of the different endogenous substances in the urine and feces samples, different elution gradients were used to alleviate the matrix effects for the analytes.
The mass spectrometric detection was performed on an ABSciex 4500 Qtrap mass spectrometer (ABSciex, Foster City, CA, USA) equipped with a negative electrospray ionization (ESI) interface using multiple reaction monitoring (MRM). The MS parameters were optimized under the selected ion monitoring conditions as follows: curtain gas, 35 psi; ionspray voltage, 4500 V; turbo gas temperature, 450 °C; GS1, 45 psi; GS2, 45 psi. All data were acquired and analyzed by Analyst software (Versions 1.6.2) from ABSciex.
The accumulative excretion percentage was calculated for each analyte as follows. Excretion at time (t) = [concentration of the analyte (ng/mL) at t] × total urine (or feces) volume (mL) at t. The cumulative excretion up to time t (mg) was expressed as a percent (%) cumulative excretion by dividing by the total amount of the analyte ingested (mg): % Cumulative Excretion = 100 × (Σt excretiont) total ingested.

concentration at 4 h (male, Sprague Dawley, oral CNS 110 mg/kg, 4 h): 204 ± 283 ng/mL
concentration at 8 h (male, Sprague Dawley, oral CNS 110 mg/kg, 8 h): 274 ± 65 ng/mL
concentration at 12 h (male, Sprague Dawley, oral CNS 110 mg/kg, 12 h): 164 ± 12 ng/mL
concentration at 24 h (male, Sprague Dawley, oral CNS 110 mg/kg, 24 h): 119 ± 51 ng/mL
concentration at 36 h (male, Sprague Dawley, oral CNS 110 mg/kg, 36 h): 653 ± 41 ng/mL
concentration at 48 h (male, Sprague Dawley, oral CNS 110 mg/kg, 48 h): 658 ± 72 ng/mL
concentration at 72 h (male, Sprague Dawley, oral CNS 110 mg/kg, 72 h): 153 ± 72 ng/mL
concentration at 96 h (male, Sprague Dawley, oral CNS 110 mg/kg, 96 h): 35 ± 34 ng/mL
concentration at 4 h (male, Sprague Dawley, oral NS 60 mg/kg, 4 h): 752 ± 79 ng/mL
concentration at 8 h (male, Sprague Dawley, oral NS 60 mg/kg, 8 h): 605 ± 22 ng/mL
concentration at 12 h (male, Sprague Dawley, oral NS 60 mg/kg, 12 h): 602 ± 49 ng/mL
concentration at 24 h (male, Sprague Dawley, oral NS 60 mg/kg, 24 h): 670 ± 34 ng/mL
concentration at 36 h (male, Sprague Dawley, oral NS 60 mg/kg, 36 h): 505 ± 14 ng/mL
concentration at 48 h (male, Sprague Dawley, oral NS 60 mg/kg, 48 h): 704 ± 26 ng/mL
concentration at 72 h (male, Sprague Dawley, oral NS 60 mg/kg, 72 h): 122 ± 5 ng/mL
concentration at 96 h (male, Sprague Dawley, oral NS 60 mg/kg, 96 h): 17 ± 1 ng/mL
concentration at 120 h (male, Sprague Dawley, oral NS 60 mg/kg, 120 h): 15 ± 2 ng/mL
Accumulative excretion amount (oral CNS 110 mg/kg, 4 h): 2.579 ± 3.701 µg
Accumulative excretion percentage (oral CNS 110 mg/kg, 4 h): 0.343±0.491%
Excretion amount (oral CNS 110 mg/kg, 4 h): 2.579 ± 3.701 µg
Accumulative excretion amount (oral CNS 110 mg/kg, 8 h): 6.687 ± 3.535 µg
Accumulative excretion percentage (oral CNS 110 mg/kg, 8 h): 0.883±0.462%
Excretion amount (oral CNS 110 mg/kg, 8 h): 4.108 ± 1.195 µg
Accumulative excretion amount (oral CNS 110 mg/kg, 12 h): 9.145 ± 3.524 µg
Accumulative excretion percentage (oral CNS 110 mg/kg, 12 h): 1.204±0.465%
Excretion amount (oral CNS 110 mg/kg, 12 h): 2.459 ± 0.753 µg
Accumulative excretion amount (oral CNS 110 mg/kg, 24 h): 11.000 ± 3.256 µg
Accumulative excretion percentage (oral CNS 110 mg/kg, 24 h): 1.453±0.432%
Excretion amount (oral CNS 110 mg/kg, 24 h): 1.855 ± 1.046 µg
Accumulative excretion amount (oral CNS 110 mg/kg, 36 h): 20.700 ± 5.415 µg
Accumulative excretion percentage (oral CNS 110 mg/kg, 36 h): 2.724±0.715%
Excretion amount (oral CNS 110 mg/kg, 36 h): 9.700 ± 2.660 µg
Accumulative excretion amount (oral CNS 110 mg/kg, 48 h): 30.478 ± 7.801 µg
Accumulative excretion percentage (oral CNS 110 mg/kg, 48 h): 4.011±1.032%
Excretion amount (oral CNS 110 mg/kg, 48 h): 9.778 ± 2.743 µg
Accumulative excretion amount (oral CNS 110 mg/kg, 72 h): 32.881 ± 8.515 µg
Accumulative excretion percentage (oral CNS 110 mg/kg, 72 h): 4.322±1.123%
Excretion amount (oral CNS 110 mg/kg, 72 h): 2.403 ± 1.477 µg
Accumulative excretion amount (oral CNS 110 mg/kg, 96 h): 33.451 ± 8.722 µg
Accumulative excretion percentage (oral CNS 110 mg/kg, 96 h): 4.403±1.154%
Excretion amount (oral CNS 110 mg/kg, 96 h): 0.570 ± 0.568 µg
Accumulative excretion percentage (oral CNS 110 mg/kg, 120 h): 4.404±1.151%
Accumulative excretion amount (oral NS 60 mg/kg, 4 h): 10.755 ± 3.385 µg
Accumulative excretion percentage (oral NS 60 mg/kg, 4 h): 1.232±0.395%
Excretion amount (oral NS 60 mg/kg, 4 h): 10.755 ± 3.385 µg
Accumulative excretion amount (oral NS 60 mg/kg, 8 h): 19.476 ± 6.086 µg
Accumulative excretion percentage (oral NS 60 mg/kg, 8 h): 2.244± 0.706%
Excretion amount (oral NS 60 mg/kg, 8 h): 8.721 ± 2.813 µg
Accumulative excretion amount (oral NS 60 mg/kg, 12 h): 28.152 ± 8.861 µg
Accumulative excretion percentage (oral NS 60 mg/kg, 12 h): 3.232±1.024%
Excretion amount (oral NS 60 mg/kg, 12 h): 8.676 ± 2.808 µg
Accumulative excretion amount (oral NS 60 mg/kg, 24 h): 37.713 ± 11.637 µg
Accumulative excretion percentage (oral NS 60 mg/kg, 24 h): 4.331±1.342%
Excretion amount (oral NS 60 mg/kg, 24 h): 9.562 ± 2.795 µg
Accumulative excretion amount (oral NS 60 mg/kg, 36 h): 45.004 ± 14.004 µg
Excretion amount (oral NS 60 mg/kg, 36 h): 7.290 ± 2.427 µg
Accumulative excretion amount (oral NS 60 mg/kg, 48 h): 55.154 ± 17.338 µg
Accumulative excretion percentage (oral NS 60 mg/kg, 48 h): 6.332±1.991%
Excretion amount (oral NS 60 mg/kg, 48 h): 10.151 ± 3.361 µg
Accumulative excretion amount (oral NS 60 mg/kg, 72 h): 56.907 ± 17.892 µg
Accumulative excretion percentage (oral NS 60 mg/kg, 72 h): 6.534±2.048%
Excretion amount (oral NS 60 mg/kg, 72 h): 1.753 ± 0.562 µg
Accumulative excretion amount (oral NS 60 mg/kg, 96 h): 57.148 ± 17.967 µg
Accumulative excretion percentage (oral NS 60 mg/kg, 96 h): 6.563±2.059%
Excretion amount (oral NS 60 mg/kg, 96 h): 0.241 ± 0.076 µg
Accumulative excretion amount (oral NS 60 mg/kg, 120 h): 57.371 ± 18.037 µg
Accumulative excretion percentage (oral NS 60 mg/kg, 120 h): 6.589±2.068%
Excretion amount (oral NS 60 mg/kg, 120 h): 0.223 ± 0.076 µg
SMILES: CC(C)=CCC[C@](C)(O[C@@H]1O[C@H](CO)[C@@H](O)[C@H](O)[C@H]1O)[C@H]1CC[C@]2(C)[C@@H]1[C@H](O)C[C@@H]1[C@@]3(C)CC[C@H](O[C@@H]4O[C@H](CO)[C@@H](O)[C@H](O)[C@H]4O[C@@H]4O[C@H](CO)[C@@H](O)[C@H](O)[C@H]4O)C(C)(C)[C@@H]3CC[C@]12C [ginsenoside Rd]
